The results in this text go back to US8293231B2, “Methods and compositions for treating ischemia” (Blue Blood Biotech Corp., priority 2005, dated 2012).

One assay relates to HUVECs. Put plainly: In vitro Matrigel angiogenesis assay (tube formation). It is filed as cell-based, human. The method, then: (§1) Growth-factor-reduced Matrigel (BD Biosciences) was thawed at 4° C. A total of 200 μL Matrigel was added to wells of a 48-well plate and polymerized 30 min at 37° C. Two hundred μL cell suspension containing various concentrations of VEGF, TMD23, or TMD23 in the presence of polyclonal rabbit anti-TMD23 antibody (10 μg/mL) or various signaling pathway inhibitors were plated onto Matrigel-coated wells at a density of 2.4×10^4 cells/well in M199 containing 10% FBS for 24 h at 37° C. in a 5% CO2 humidified atmosphere. Each concentration was tested in triplicate in the same plate, with wells photographed using a Leica camera (40× magnification). Tube length was quantified by measuring tubes in five randomly chosen fields from each well using MetaMorph software. Experiments were repeated at least three times.
as §1, with “5° k” for “5%”

For assay [1], the system named is PAI activity in conditioned media of HUVECs. The assay can be described thus: Plasminogen activator inhibitor (PAI) activity assay. In kind it is cell-based, human. Particulars: 12 h; 100 or 1000 ng/mL TMD23, 70 ng/mL PMA, 10 ng/mL VEGF. The method, then: (§2) HUVECs were seeded at 80% confluence on 100-mm dishes in M199 medium. After 24 h, cells were rinsed with serum-free M199 twice and incubated in serum-free M199 with various concentrations of TMD23, VEGF (10 ng/mL), or PMA (70 ng/mL) for 12 h. The conditioned medium containing […] secreted proteins was analyzed by gelatin- and casein-based zymographies. The digested area appeared clear on a blue background, indicating the location of matrix metalloproteinase (MMP) activity. To further verify MMP caseinolytic activity, the casein-containing gel was incubated with incubation buffer containing 10 mM EDTA, an inhibitor of MMPs, to observe disappearance of the clear band. Plasminogen activator inhibitor (PAI) activity was measured by titrating samples with increasing amounts of tissue-type plasminogen activator (t-PA) (Boehringer Ingelheim) into a fixed volume of endothelial-cell-conditioned media.
as §2, with “zymographies. Lee O H, et al., Identification of angiogenic properties of insulin-like growth factor II in in vitro angiogenesis models. Brit J. Cancer. 2000; 82:385-391.” for “zymographies.”, “media. Shi G Y., et al., Plasmin and the regulation of tissue-type plasminogen activator biosynthesis in human endothelial cells. […]” for “media.”

For the substance “TMD23: Recombinant human thrombomodulin fragment, amino acids Ala242-Ser515 of SEQ ID NO: 2: six EGF-like structures (D2) plus Ser/Thr-rich domain D3”, in the assay on HUVECs (24 h, VEGF 10 ng/mL, TMD23 5 to 250 ng/mL), the “HUVEC tube formation on Matrigel” value is on record as “formed elongated capillary-like structures, with complete networks”. Besides, in the assay with HUVECs (FIG. 5G), the “Tubule length per well” value is reported as “stimulated tube formation in dose-dependent manner”. Besides, the “PAI activity in conditioned media of HUVECs” value in assay [1] is listed as “decreased significantly”.
